For seven compounds, IC50 and inhibition results are on record in publication PMC3617544 (The Open Medicinal Chemistry Journal, 2013).

Assay [1] addresses T1, BACE-1 (Homo sapiens, UniProt P56817). The assay is described as follows: BACE-1 enzyme assay. Type of assay: biochemical.
Assay [2] concerns the target T1, BACE-1. Put plainly: BACE-1 cell assay. Conditions: HEK293, read-out: percent inhibition of BACE-1 in cell-based assay.

T1 sequence (P56817 46-501): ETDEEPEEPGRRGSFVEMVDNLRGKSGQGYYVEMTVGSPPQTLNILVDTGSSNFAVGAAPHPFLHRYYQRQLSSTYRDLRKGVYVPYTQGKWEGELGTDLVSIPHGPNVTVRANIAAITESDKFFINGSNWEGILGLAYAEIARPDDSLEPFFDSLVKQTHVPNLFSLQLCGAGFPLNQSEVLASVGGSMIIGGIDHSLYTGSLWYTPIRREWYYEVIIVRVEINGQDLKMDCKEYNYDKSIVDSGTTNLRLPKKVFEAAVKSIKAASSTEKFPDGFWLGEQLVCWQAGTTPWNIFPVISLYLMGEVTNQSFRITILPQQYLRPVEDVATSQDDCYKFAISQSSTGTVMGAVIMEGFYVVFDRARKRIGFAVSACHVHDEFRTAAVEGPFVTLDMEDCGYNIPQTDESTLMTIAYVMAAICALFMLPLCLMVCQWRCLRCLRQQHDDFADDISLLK

Usually IC50 stands for the concentration needed to halve the response being measured. Low readings indicate inhibition by little substance, high ones a need for much substance. As usually defined, the inhibition is the drop in the measured response relative to a control, in per cent. Turning to `CC[C@H](C)[C@H](NC(=O)[C@@H](C[C@H](O)[C@H](COc1ccc(-c2ccccc2)c(OCCCOC)c1)NC(=O)c1cc(C(=O)N[C@H](C)c2ccccc2)cc(N(C)S(C)(=O)=O)c1)OC)C(=O)NCc1ccc(Cl)cc1` [Compound 25, N-{(1S,2S,4R)-4-[(1S,2S)-1-(4-Chloro-benzylcarbamoyl)-2-methyl-butylcarbamoyl]-2-hydroxy-4-methoxy-1-[2-(3-methoxypropoxy)-biphenyl-4-yloxymethyl]-butyl}-5-(methanesulfonyl-methyl-amino)-N'-((R)-1-phenyl-ethyl)-isophthalamide], the IC50 at BACE-1 [1] was 69 nM. Also, on BACE-1 [2], the inhibition at 1 µM is 3%.

On BACE-1 [1], `CC[C@H](C)[C@@H](CNc1ccc(Cl)cc1)NC(=O)[C@@H](C[C@H](O)[C@@H](N)COc1ccc(-c2ccc(F)cc2)c(OCCCOC)c1)C(C)C` [Compound 30, (2S,4S,5S)-5-amino-N-((2S,3S)-1-(4-chlorophenylamino)-3-methylpentan-2-yl)-6-(4'-fluoro-2-(3-methoxypropoxy)bi-phenyl-4-yloxy)-4-hydroxy-2-isopropylhexanamide] yielded a 50% inhibitory concentration (IC50) of 540 nM. The inhibition at 1 µM on BACE-1 [2] was found to be 28%.

Turning to `CC[C@H](C)[C@H](NC(=O)[C@@H](C[C@H](O)[C@@H](N)COc1ccc(-c2ccc(F)cc2)cc1)OC)C(=O)NCc1ccc(Cl)cc1` [Compound 23, (2R,4S,5S)-5-Amino-6-(4'-fluoro-biphenyl-4-yloxy)-4-hydroxy-2-methoxy-hexanoic acid [(1S,2S)-1-(4-chloro-benzylcarbamoyl)-2-methyl-butyl]-amide], on BACE-1 [1], the IC50 is greater than 10000 nM.

At BACE-1 [1], `CC[C@H](C)[C@@H](CNc1ccc(Cl)cc1)NC(=O)[C@H](Cc1ccccc1)C[C@H](O)[C@@H](N)COc1ccc(-c2ccc(F)cc2)c(OCCCOC)c1` [Compound 28, (2R,4S,5S)-5-amino-2-benzyl-N-((2S,3S)-1-(4-chlorophenylamino)-3-methylpentan-2-yl)-6-(4'-fluoro-2-(3-methoxypropoxy)biphenyl-4-yloxy)-4-hydroxyhexanamide] gave an IC50 of 300 nM. Moreover, on BACE-1 [2], the inhibition at 1 µM was 14%.

In turn, `CO[C@H](C[C@H](O)[C@H](COc1ccc(OCc2ccccc2)cc1)NC(=O)c1cccc(N(C)S(C)(=O)=O)c1)C(=O)N[C@H](C(=O)NCc1ccccc1)C(C)C` [Compound 19, N-[(1S,2S,4R)-4-((S)-1-Benzylcarbamoyl-2-methyl-propylcarbamoyl)-1-(4-benzyloxy-phenoxymethyl)-2-hydroxy-4-methoxy-butyl]-3-(methanesulfonyl-methyl-amino)-benzamide] gave an IC50 on BACE-1 [1] of 4600 nM.

`CO[C@H](C[C@H](O)[C@@H](N)COc1cccc(OCc2ccccc2)c1)C(=O)N[C@H](C(=O)NCc1ccccc1)C(C)C` [Compound 17, (2R,4S,5S)-5-Amino-6-(3-benzyloxy-phenoxy)-4-hydroxy-2-methoxy-hexanoic acid ((S)-1-benzylcarbamoyl-2-methyl-propyl)-amide] displayed an IC50 against BACE-1 [1] greater than 10000 nM.

As to `COCCCOc1cc(OC[C@H](N)[C@@H](O)C[C@@H](OC)C(=O)N[C@H](C(=O)NCc2ccc(Cl)cc2)C(C)C)ccc1-c1ccc(F)cc1` [Compound 20, (2R,4S,5S)-5-Amino-6-[4'-fluoro-2-(3-methoxy-propoxy)-biphenyl-4-yloxy]-4-hydroxy-2-methoxy-hexanoic acid [(S)-1-(4-chloro-benzylcarbamoyl)-2-methyl-propyl]-amide], at BACE-1 [1], the IC50 was 2700 nM. That is a single-digit micromolar value.
